Test results from US11377456B2, “Crystalline form of Remdesivir” (Apotex Inc., priority 2020, dated 2022).

Experiments:
[1] = Comparative intrinsic dissolution testing (Wood's apparatus); format: physicochemical; settings: 900 mL distilled water, 37° C., 50 rpm, sample compressed at 1.5 metric tons for 1 minute
Method: Intrinsic dissolution rate (IDR) measurements were performed using a Wood's apparatus. Samples were prepared by compressing an amount (267 mg Form II; 258 mg APO-I) of sample at 1.5 metric tons for 1 minute. A dissolution medium consisting of 900 mL distilled water maintained at 37° C., and rotation speed of 50 rpm, was used for each experiment.

[2] = PXRD study of crystalline form stability in a 27° C./60% RH stability chamber; format: physicochemical; settings: capped and uncapped samples, at least 5 weeks
Method: Remdesivir Form APO-I can be characterized by a PXRD diffractogram comprising, among other peaks, characteristic peaks, expressed in degrees 2θ (±0.2°), at 4.0°, 17.0° and 20.3°. Preferably, the PXRD diffractogram further comprises at least three peaks, expressed in degrees 2θ (±0.2°), selected from the group consisting of 10.4°, 13.0°, 14.1°, 15.3°, 17.5°, 18.3°, 22.1°, 23.9°, 25.1° and 25.9°. More preferably, the PXRD diffractogram further comprises peaks, expressed in degrees 2θ (±0.2°), at 10.4°, 13.0°, 14.1°, 15.3°, 17.5°, 18.3°, 22.1°, 23.9°, 25.1° and 25.9°.
The PXRD diffractogram was recorded on a Bruker D8 Discover powder X-ray diffractometer (Bruker-AXS, Karlsruhe, Germany). The generator was a Micro-focus X-ray source (Incoatec IμS Cu anode, λ=1.54060 Å) with a voltage of 50 kV and current of 1.00 mA. X-rays were focused with a micro mask 0.1 mm plug-in microslit. One frame was collected using a still scan with a PILATUS3 R 100K-A detector at the distance of 154.72 mm from the sample. Raw data was evaluated using the program EVA (Bruker-AXS, Karlsruhe, Germany).

Compound	Intrinsic Dissolution Rate [1]	Change in crystalline form by PXRD (polymorphic stability) [2]
CCC(CC)COC(=O)[C@H](C)N[P@](=O)(OC[C@H]1O[C@@](C#N)(c2ccc3c(N)ncnn23)[C@H](O)[C@@H]1O)Oc1ccccc1 [Remdesivir Form II, reference compound]	0.0083 mg min^−1 cm^−2	
CCC(CC)COC(=O)[C@H](C)N[P@](=O)(OC[C@H]1O[C@@](C#N)(c2ccc3c(N)ncnn23)[C@H](O)[C@@H]1O)Oc1ccccc1 [Remdesivir Form APO-I]	0.013 mg min^−1 cm^−2	no change in the crystalline form occurred
